In patent US8785453B2, “Arylpiperazine-containing purine derivatives and uses thereof” (Green Cross Corporation, priority 2009, dated 2014):

Assays:
[1] = target: T1, human serotonin transporter (Homo sapiens, UniProt P31645); experiment: Binding affinity for serotonin transporter ([3H]Imipramine); conditions: HEK-293 membrane, 2 nM [3H]Imipramine; read-out: binding affinity Serotonin Transporter
T1 construct: purchased PerkinElmer; host or cells: HEK-293 cells
Method: For serotonin transporter binding assays, a reaction mixture with a final volume of 0.25 ml was prepared by mixing a test compound, human serotonin transporter membrane expressed in HEK-293 cells (PerkinElmer, 5 μg/well), [^3H] Imipramine (PerkinElmer, 2 nM) and 50 mM Tris-HCl (pH 7.4) buffer containing 120 mM NaCl and 5 mM KCl. The reaction mixture was incubated for 30 min at 27, and harvested through filtermate A glass fiber filter presoaked in 0.5% PEI with ice cold 50 mM Tris-HCl buffer (pH 7.4) containing 0.9% NaCl.

mice = experiment: Anti-depressants activity in forced swimming test; format: in vivo; conditions: 60 min before testing
Method: Each mouse was placed in a 25 cm glass cylinder (10 cm diameter) containing 15 cm of water maintained at 22±1, and was forced to swim for 10 min. 24 hours later, the mouse was replaced into the cylinder and the total duration of immobility was recorded during the last 5 min of the 6-min testing period. Mice are judged immobile when they float in an upright position and make only small movements to keep their head above water. Test drugs were suspended in 3% Tween 80 solution, and administered orally (po) 60 min before the testing.

[2] = target: T2, human recombinant serotonin 5-HT2A receptor (Homo sapiens, UniProt P28223); experiment: Binding affinity for serotonin 5-HT2A receptor ([3H]Ketanserin); conditions: CHO-K1 cells, 1 nM [3H]Ketanserin; read-out: binding affinity (IC50) 5-HT2A
T2 construct: purchased PerkinElmer Life and Analytical Sciences, USA; host or cells: CHO-K1 cells
T2 sequence (P28223 whole entry): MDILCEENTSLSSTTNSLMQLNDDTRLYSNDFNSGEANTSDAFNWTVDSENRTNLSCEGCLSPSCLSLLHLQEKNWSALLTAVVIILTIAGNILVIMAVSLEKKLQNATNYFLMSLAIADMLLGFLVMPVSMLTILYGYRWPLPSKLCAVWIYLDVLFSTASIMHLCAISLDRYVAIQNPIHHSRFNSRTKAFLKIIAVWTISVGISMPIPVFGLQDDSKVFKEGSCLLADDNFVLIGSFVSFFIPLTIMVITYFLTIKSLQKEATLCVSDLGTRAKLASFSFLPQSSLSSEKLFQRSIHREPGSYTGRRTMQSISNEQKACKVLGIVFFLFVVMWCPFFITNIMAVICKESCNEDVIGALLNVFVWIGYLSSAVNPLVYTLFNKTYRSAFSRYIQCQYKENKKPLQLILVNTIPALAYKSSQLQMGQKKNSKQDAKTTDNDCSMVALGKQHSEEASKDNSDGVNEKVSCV
Method: (§1) Receptor binding affinities of the compounds for serotonin receptors were measured by the method described in the literature (see [Park W K et al., Pharmacol Biochem Behav., 82(2), 361-372 (2005)].
For serotonin 5-HT2A binding, an aliquot of human recombinant serotonin 5-HT2A receptor (PerkinElmer Life and Analytical Sciences, USA) expressed in CHO-K1 cells (5 μg/well) and 1 nM [^3H]Ketanserin (PerkinElmer) were used in the presence of mianserin (20 μM) as a nonspecific. The reaction mixture was incubated for 60 min […] 50 mM Tris-HCl (pH 7.4) buffer containing 4 mM CaCl2 and 0.1% ascorbic acid, and harvested through filtermate A glass fiber filter (Wallac, Finland) presoaked in 0.5% polyethyleneimine (PEI) by microbeta filtermate-96 harvester (PerkinElmer) to terminate the reaction, and then washed with ice cold 50 mM Tris-HCl buffer solution (pH 7.4). The filter was then covered with MeltiLex, sealed in a sample bag, dried in an oven. The radioactivity retained in the filter was finally counted using MicroBeta Plus (Wallac).
(§2) The binding affinity (IC50) of a compound for the receptor was calculated by computerized nonlinear regression analysis (GraphPad Prism Program, San Diego, USA) using 7-8 varied concentrations of the compound run in duplicate tubes.

[3] = target: T3, human recombinant 5-HT2C receptor (Homo sapiens, UniProt P28335); experiment: Binding affinity for serotonin 5-HT2C receptor ([3H]Mesulergine); conditions: CHO-K1 membranes, 1.3 nM [3H]Mesulergine; read-out: binding affinity (IC50) 5-HT2C
T3 construct: purchased PerkinElmer
T3 sequence (P28335 33-458): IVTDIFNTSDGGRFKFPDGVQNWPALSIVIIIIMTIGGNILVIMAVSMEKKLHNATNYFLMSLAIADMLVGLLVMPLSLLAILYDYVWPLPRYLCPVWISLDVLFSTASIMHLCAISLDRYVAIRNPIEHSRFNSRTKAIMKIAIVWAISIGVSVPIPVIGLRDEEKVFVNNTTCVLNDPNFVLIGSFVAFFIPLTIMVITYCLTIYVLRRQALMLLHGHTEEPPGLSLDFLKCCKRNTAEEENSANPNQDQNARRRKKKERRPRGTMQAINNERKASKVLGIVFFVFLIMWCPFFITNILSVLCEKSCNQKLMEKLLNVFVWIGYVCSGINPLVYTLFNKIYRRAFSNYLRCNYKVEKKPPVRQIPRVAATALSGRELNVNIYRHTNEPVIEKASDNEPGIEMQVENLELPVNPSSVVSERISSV
Method: as §1, §2
For serotonin 5-HT2C binding, frozen membranes from stable CHO-K1 cell line expressing the human recombinant 5-HT2C receptor (PerkinElmer, 4 μg/well), [^3H]Mesulergine (Amersham, 1.3 nM) and test compounds were added into 50 mM Tris-HCl (pH 7.4) buffer containing 0.1% ascorbic acid and 4 mM CaCl2. Nonspecific binding was determined using 100 μM mianserin. The incubations were performed for 60 min at 27, and these were terminated by rapid filtration through filtermate A glass fiber filter presoaked in 0.5% PEI.

T1 sequence (P31645 whole entry): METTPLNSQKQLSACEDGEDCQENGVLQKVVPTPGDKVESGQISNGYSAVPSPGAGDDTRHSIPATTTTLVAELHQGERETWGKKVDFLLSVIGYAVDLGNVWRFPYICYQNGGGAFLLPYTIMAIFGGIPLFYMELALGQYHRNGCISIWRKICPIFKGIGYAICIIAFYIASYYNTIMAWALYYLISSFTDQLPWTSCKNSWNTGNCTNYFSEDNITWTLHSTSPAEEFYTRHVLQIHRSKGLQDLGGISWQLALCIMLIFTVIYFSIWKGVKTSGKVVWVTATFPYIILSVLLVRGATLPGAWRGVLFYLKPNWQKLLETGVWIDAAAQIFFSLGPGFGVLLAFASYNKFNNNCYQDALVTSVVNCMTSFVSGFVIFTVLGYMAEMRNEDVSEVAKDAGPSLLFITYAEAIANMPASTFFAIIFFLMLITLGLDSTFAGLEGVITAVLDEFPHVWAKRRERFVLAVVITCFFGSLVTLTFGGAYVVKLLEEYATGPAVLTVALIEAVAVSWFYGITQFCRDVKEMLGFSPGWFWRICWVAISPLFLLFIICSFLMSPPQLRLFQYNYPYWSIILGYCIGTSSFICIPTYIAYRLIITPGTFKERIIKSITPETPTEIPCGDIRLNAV

Row | Structure (SMILES) | IC50 [1] | Immobility in forced swimming test (mice; 25 mg/kg po) | Immobility in forced swimming test (mice; 50 mg/kg po) | IC50 [2] | IC50 [3]
1 | Cc1cccc(N2CCN(CCCNc3ncnc4c3ncn4-c3ccc4c(c3)OCO4)CC2)c1C [Example 34, 9-(benzo[d][1,3]dioxol-5-yl)-N-(3-(4-(2,3-dimethylphenyl)piperazin-1-yl)propyl)-9H-purine-6-amine] | 0.006 µM | 76.92 ± 10.04% | 96.83 ± 11.02% | 0.054 µM | 0.23 µM
2 | Cc1cccc(N2CCN(CC(O)CNc3ncnc4c3nc(C)n4-c3ccc4c(c3)OCO4)CC2)c1C (stereo not shown) [Example 35, 1-(9-(benzo[d][1,3]dioxol-5-yl)-8-methyl-9H-purin-6-ylamino)-3-(4-(2,3-dimethylphenyl)piperazin-1-yl)propan-2-ol] | 0.027 µM | 87.36 ± 6.89% | – | 0.106 µM | 0.789 µM
3 | Cc1cccc(N2CCN(CCCNc3ncnc4c3nc(C)n4-c3ccc4c(c3)OCO4)CC2)c1C [Example 36, 9-(benzo[d][1,3]dioxol-5-yl)-N-(3-(4-(2,3-dimethylphenyl)piperazin-1-yl)propyl)-8-methyl-9H-purine-6-amine] | 0.004 µM | 79.93 ± 13.23% | 86.77 ± 11.28% | 0.029 µM | 0.285 µM
4 | Cc1cccc(N2CCN(CC(O)CNc3ncnc4c3nc(C(C)(C)C)n4C)CC2)c1C (stereo not shown) [Example 38, 1-(8-tert-butyl-9-methyl-9H-purin-6-ylamino)-3-(4-(2,3-dimethylphenyl)piperazin-1-yl)propan-2-ol] | 0.019 µM | 74.86 ± 9.75% | 64.14 ± 10.74% | 0.404 µM | 1.59 µM
5 | CCc1nc2c(NCCCN3CCN(c4cccc(C)c4C)CC3)ncnc2n1-c1ccc2c(c1)OCO2 [Example 39, 9-(benzo[d][1,3]dioxol-5-yl)-N-(3-(4-(2,3-dimethylphenyl)piperazin-1-yl)propyl)-8-ethyl-9H-purine-6-amine] | 0.021 µM | 88.94 ± 5.41% | – | 0.033 µM | 0.328 µM
6 | CCc1nc2c(NCC(O)CN3CCN(c4cccc(C)c4C)CC3)ncnc2n1-c1ccc2c(c1)OCO2 (stereo not shown) [Example 40, 1-(9-(benzo[d][1,3]dioxol-5-yl)-8-ethyl-9H-purin-6-ylamino)-3-(4-(2,3-dimethylphenyl)piperazin-1-yl)propan-2-ol] | 0.018 µM | 98.20 ± 10.00% | – | 0.125 µM | 0.713 µM
7 | Cc1cccc(N2CCN(CCCNc3ncnc4c3ncn4-c3ccc4c(c3)OCCO4)CC2)c1C [Example 41, 9-(2,3-dihydrobenzo[b][1,4]dioxin-6-yl)-N-(3-(4-(2,3-dimethylphenyl)piperazin-1-yl)propyl)-9H-purine-6-amine] | 0.007 µM | 105.95 ± 4.92% | – | 0.016 µM | 0.224 µM
8 | Cc1cccc(N2CCN(CC(O)CNc3ncnc4c3ncn4-c3ccc4c(c3)OCCO4)CC2)c1C (stereo not shown) [Example 42, 1-(9-(2,3-dihydrobenzo[b][1,4]dioxin-6-yl)-9H-purin-6-ylamino)-3-(4-(2,3-dimethylphenyl)piperazin-1-yl)propan-2-ol] | 0.008 µM | 86.65 ± 6.40% | – | 0.04 µM | 0.56 µM
9 | Cc1cccc(N2CCN(CCCNc3ncnc4c3nc(C)n4-c3ccc4c(c3)OCCO4)CC2)c1C [Example 43, 9-(2,3-dihydrobenzo[b][1,4]dioxin-6-yl)-N-(3-(4-(2,3-dimethylphenyl)piperazin-1-yl)propyl)-8-methyl-9H-purine-6-amine] | 0.016 µM | 81.26 ± 11.85% | – | 0.014 µM | 0.118 µM
10 | Cc1cccc(N2CCN(CC(O)CNc3ncnc4c3nc(C)n4-c3ccc4c(c3)OCCO4)CC2)c1C (stereo not shown) [Example 44, 1-(9-(2,3-dihydrobenzo[b][1,4]dioxin-6-yl)-8-methyl-9H-purin-6-ylamino)-3-(4-(2,3-dimethylphenyl)piperazin-1-yl)propan-2-ol] | 0.065 µM | 80.41 ± 7.04% | – | 0.054 µM | 0.51 µM
11 | CCc1nc2c(NCCCN3CCN(c4cccc(C)c4C)CC3)ncnc2n1-c1ccc2c(c1)OCCO2 [Example 45, 9-(2,3-dihydrobenzo[b][1,4]dioxin-6-yl)-N-(3-(4-(2,3-dimethylphenyl)piperazin-1-yl)propyl)-8-ethyl-9H-purine-6-amine] | 0.049 µM | 97.64 ± 7.25% | – | 0.014 µM | 0.151 µM
12 | Cc1cccc(N2CCN(CCCNc3ncnc4c3nc(C)n4-c3ccc(F)cc3)CC2)c1C [Example 49, N-(3-(4-(2,3-dimethylphenyl)piperazin-1-yl)propyl)-9-(4-fluorophenyl)-8-methyl-9H-purine-6-amine] | 0.062 µM | 81.07 ± 7.11% | – | 0.047 µM | 0.364 µM
13 | CCc1nc2c(NCCCN3CCN(c4cccc(C)c4C)CC3)ncnc2n1-c1ccc(F)cc1 [Example 51, N-(3-(4-(2,3-dimethylphenyl)piperazin-1-yl)propyl)-8-ethyl-9-(4-fluorophenyl)-9H-purine-6-amine] | 0.019 µM | 99.44 ± 10.28% | – | 0.066 µM | 0.423 µM
14 | Cc1cccc(N2CCN(CCNc3ncnc4c3nc(C)n4-c3ccc(F)cc3)CC2)c1C [Example 55, N-(2-(4-(2,3-dimethylphenyl)piperazin-1-yl)ethyl)-9-(4-fluorophenyl)-8-methyl-9H-purine-6-amine] | 0.518 µM | 70.53 ± 11.73% | 78.41 ± 8.11% | 0.0311 µM | 0.129 µM
15 | CCc1nc2c(NCCN3CCN(c4cccc(C)c4C)CC3)ncnc2n1-c1ccc(F)cc1 [Example 56, N-(2-(4-(2,3-dimethylphenyl)piperazin-1-yl)ethyl)-8-ethyl-9-(4-fluorophenyl)-9H-purine-6-amine] | 0.146 µM | 71.41 ± 10.84% | 77.46 ± 12.27% | 0.0075 µM | 0.0765 µM
16 | Cc1cccc(N2CCN(CCCNc3ncnc4c3nc(C)n4-c3ccc(Cl)cc3)CC2)c1C [Example 70, 9-(4-chlorophenyl)-N-(3-(4-(2,3-dimethylphenyl)piperazin-1-yl)propyl)-8-methyl-9H-purine-6-amine] | 0.0438 µM | 80.67 ± 12.19% | 53.34 ± 10.82% | 0.0543 µM | 0.316 µM
17 | Cc1cccc(N2CCN(CCCNc3ncnc4c3nc(C)n4-c3ccc(C(F)(F)F)cc3)CC2)c1C [Example 76, N-(3-(4-(2,3-dimethylphenyl)piperazin-1-yl)propyl)-8-methyl-9-(4-(trifluoromethyl)phenyl)-9H-purine-6-amine] | 0.128 µM | 79.98 ± 7.42% | 90.13 ± 4.29% | 0.0431 µM | 0.453 µM
18 | Cc1cccc(N2CCN(CCCNc3ncnc4c3nc(-c3ccccc3)n4-c3ccc4c(c3)OCO4)CC2)c1C [Example 83, 9-(benzo[d][1,3]dioxol-5-yl)-N-(3-(4-(2,3-dimethylphenyl)piperazin-1-yl)propyl)-8-phenyl-9H-purine-6-amine] | 0.042 µM | 70.43 ± 6.15% | – | 0.03 µM | 0.198 µM
